Results from PubChem BioAssay AID206 (DTP/NCI, 2004).
Records with an inconclusive call do not appear.

Test system: nude mice, HT29 intrarenal xenograft, tumor weight T/C
Assay: NCI In Vivo Anticancer Drug Screen. Data for tumor model HT29;CX-1 Human Adenocarcinoma (MER+) (intrarenal inoculation) in NU/NU Swiss (nude) mice
Details: endpoint: mean tumor weight change, higher = larger tumour
Summary of the method: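 Mice with transplanted tumors are dosed with compound while controls get vehicle only. Survival or tumor burden is then assessed per group, and the treated value is expressed relative to control.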

COc1cccc2c1C(=N)c1c(O)c3c(c(O)c1C2=O)C[C@@](O)(C(C)=O)C[C@@H]3OC1CC(N)C(O)C(C)O1 (some centres not stated)
T/C (dose: 10.0 mg/kg/injection, schedule: Q04DX004 (sc), vehicle: water): 102 % of control | T/C (dose: 40.0 mg/kg/injection, schedule: Q04DX004 (sc), vehicle: water): 53 % of control

COC(=O)C(Cl)(Cl)N=Nc1c(Cl)cc(Cl)c(C)c1Cl
T/C (dose: 225.0 mg/kg/injection, schedule: Q04DX004 (sc), vehicle: saline with Tween-80): 87 % of control | T/C (dose: 450.0 mg/kg/injection, schedule: Q04DX004 (sc), vehicle: saline with Tween-80): 105 % of control | T/C (dose: 900.0 mg/kg/injection, schedule: Q04DX004 (sc), vehicle: saline with Tween-80): 81 % of control | T/C (dose: 1800.0 mg/kg/injection, schedule: Q04DX004 (sc), vehicle: saline with Tween-80): 115 % of control

CC[PH+](CC)CC[S-].CC[PH+](CC)CC[S-].[Au+].[Au+]
T/C (dose: 160.0 mg/kg/injection, schedule: Q04DX004 (sc), vehicle: Klucel (hydroxypropylcellulose) (HPC)): 152 % of control

CCOC(=O)c1ccc(NC(=O)Nc2nccs2)cc1
T/C (dose: 100.0 mg/kg/injection, schedule: Q01DX010 (sc), vehicle: saline with Tween-80): 54 % of control | T/C (dose: 200.0 mg/kg/injection, schedule: Q01DX010 (sc), vehicle: saline with Tween-80): 58 % of control | T/C (dose: 400.0 mg/kg/injection, schedule: Q01DX010 (sc), vehicle: saline with Tween-80): 74 % of control | T/C (dose: 800.0 mg/kg/injection, schedule: Q01DX010 (sc), vehicle: saline with Tween-80): 67 % of control

NC(=O)c1ncn(C2OC(CO)C(O)C2O)c1O (configuration not stated)
T/C (dose: 37.5 mg/kg/injection, schedule: Q04DX004 (sc), vehicle: Klucel (hydroxypropylcellulose) (HPC)): 76 % of control | T/C (dose: 75.0 mg/kg/injection, schedule: Q04DX004 (sc), vehicle: Klucel (hydroxypropylcellulose) (HPC)): 77 % of control | T/C (dose: 150.0 mg/kg/injection, schedule: Q04DX004 (sc), vehicle: Klucel (hydroxypropylcellulose) (HPC)): 71 % of control | T/C (dose: 300.0 mg/kg/injection, schedule: Q04DX004 (sc), vehicle: Klucel (hydroxypropylcellulose) (HPC)): 62 % of control

C=C1C(=O)O[C@@H]2[C@H](O)[C@@H](C)[C@@H]3C=CC(=O)[C@@]3(C)[C@H](OC(=O)C=C(C)C)[C@H]12
T/C (dose: 9.38 mg/kg/injection, schedule: Q04DX004 (sc), vehicle: saline with Tween-80): 93 % of control | T/C (dose: 18.75 mg/kg/injection, schedule: Q04DX004 (sc), vehicle: saline with Tween-80): 121 % of control | T/C (dose: 37.5 mg/kg/injection, schedule: Q04DX004 (sc), vehicle: saline with Tween-80): 87 % of control

CCCCCCOC(CN(C)C)C(Cl)(Cl)Cl (configuration not stated)
T/C (dose: 400.0 mg/kg/injection, schedule: Q04DX004 (sc), vehicle: saline with Tween-80): 91 % of control | T/C (dose: 800.0 mg/kg/injection, schedule: Q04DX004 (sc), vehicle: saline with Tween-80): 57 % of control | T/C (dose: 1600.0 mg/kg/injection, schedule: Q04DX004 (sc), vehicle: saline with Tween-80): 81 % of control | T/C (dose: 2400.0 mg/kg/injection, schedule: Q04DX004 (sc), vehicle: saline with Tween-80): 67 % of control

N/C(=N\O)c1cn(C2OC(CO)C(O)C2O)c2ncnc(N)c12 (configuration not stated)
T/C (dose: 5.0 mg/kg/injection, schedule: Q04DX004 (sc), vehicle: Klucel (hydroxypropylcellulose) (HPC)): 67 % of control

C/C=C1\C[C@@H]2C(OC)Nc3cc(O)c(OC)cc3C(=O)N2C1 (some centres not stated)
T/C (dose: 0.25 mg/kg/injection, schedule: Q04DX004 (sc), vehicle: saline): 113 % of control | T/C (dose: 0.5 mg/kg/injection, schedule: Q04DX004 (sc), vehicle: saline): 93 % of control | T/C (dose: 2.0 mg/kg/injection, schedule: Q04DX004 (sc), vehicle: saline): 75 % of control

OCCN1CCN(CC/C=C2/c3ccccc3Sc3ccc(Cl)cc32)CC1
T/C (dose: 25.0 mg/kg/injection, schedule: Q04DX004 (sc), vehicle: saline): 160 % of control | T/C (dose: 50.0 mg/kg/injection, schedule: Q04DX004 (sc), vehicle: saline): 87 % of control | T/C (dose: 100.0 mg/kg/injection, schedule: Q04DX004 (sc), vehicle: saline): 82 % of control | T/C (dose: 200.0 mg/kg/injection, schedule: Q04DX004 (sc), vehicle: saline): 40 % of control

NC1=NCN(C2OC(CO)C(O)C2O)C(=O)N1 (configuration not stated)
T/C (dose: 25.0 mg/kg/injection, schedule: Q01DX010 (sc), vehicle: saline): 70 % of control | T/C (dose: 50.0 mg/kg/injection, schedule: Q01DX010 (sc), vehicle: saline): 31 % of control | T/C (dose: 100.0 mg/kg/injection, schedule: Q01DX010 (sc), vehicle: saline): 38 % of control

COc1cc(NCc2ccc3nc(N)nc(N)c3c2C)cc(OC)c1OC
T/C (dose: 9.35 mg/kg/injection, schedule: Q04DX004 (sc), vehicle: water): 88 % of control | T/C (dose: 10.0 mg/kg/injection, schedule: Q01DX010 (sc), vehicle: sodium bicarbonate): 35 % of control | T/C (dose: 18.7 mg/kg/injection, schedule: Q04DX004 (sc), vehicle: water): 117 % of control | T/C (dose: 37.5 mg/kg/injection, schedule: Q04DX004 (sc), vehicle: water): 32 % of control
